The text below walks through data of patent US20210100737A1, “TRANSDERMAL DELIVERY OF DRONABINOL” (Starton Therapeutics, Inc., priority 2019, published 2021).

Data set [1] in a line: Delivery of THC through human cadaver skin (U.S. Pat. No. 8,449,908). It counts as in vitro ADME. As to conditions: calculated from the cumulative amount in 96 hrs. The protocol: U.S. Pat. No. 8,449,908 provides delivery of the cumulative amount of 10000 ng THC in 96 hrs through the human cadaver skin. This amount represents the flux of 60 ng/cm^2/hr. The patch area can be calculated using following equation: […]
In order to deliver a therapeutic dosage of 5 mg/day of delta-9-THC, a transdermal formulation would need to cover at least […] surface area of the patient's skin. This is an impractical patch size for any transdermal drug delivery system (TDDS).

For data set [2] the following is noted: in 96 hrs through human cadaver skin; U.S. Pat. No. 8,449,908; cited from earlier work.
The conditions of data set [3]: cited from earlier work.
The conditions of data set [4]: dosage of 7 mg/m^2; cited from earlier work.

Regarding `CCCCCc1cc(O)c2c(c1)OC(C)(C)[C@@H]1CCC(C)=C[C@@H]21` (relative stereo) [dronabinol, (6aR-trans)-6a,7,8,10a-tetrahydro-6,6,9-trimethyl-3-pentyl-6H-dibenzo[b,d]pyran-1-ol], the flux in data set [1] is 60 ng/cm^2/hr. For the same molecule, in data set [2], the “cumulative amount of THC delivered” value is 10000 ng. In data set [3] (after oral administration, first pass hepatic metabolism), the “share of the administered dose that reaches systemic circulation” value is given as 10%-20%. Moreover, the Alpha half-life result in data set [3] (in vivo) was “about 4 hours”. Further, the adverse effects entry in data set [4] is “not induced”.
